According to ChEMBL document CHEMBL2074465, “Nonsteroidal anti-inflammatory drugs efficiently reduce the transport and cytotoxicity of adefovir mediated by the human renal organic anion transporter 1” (J Pharmacol Exp Ther, 2000):

Target: T1, Solute carrier family 22 member 6 (Homo sapiens, UniProt Q4U2R8)
T1 sequence (Q4U2R8 whole entry): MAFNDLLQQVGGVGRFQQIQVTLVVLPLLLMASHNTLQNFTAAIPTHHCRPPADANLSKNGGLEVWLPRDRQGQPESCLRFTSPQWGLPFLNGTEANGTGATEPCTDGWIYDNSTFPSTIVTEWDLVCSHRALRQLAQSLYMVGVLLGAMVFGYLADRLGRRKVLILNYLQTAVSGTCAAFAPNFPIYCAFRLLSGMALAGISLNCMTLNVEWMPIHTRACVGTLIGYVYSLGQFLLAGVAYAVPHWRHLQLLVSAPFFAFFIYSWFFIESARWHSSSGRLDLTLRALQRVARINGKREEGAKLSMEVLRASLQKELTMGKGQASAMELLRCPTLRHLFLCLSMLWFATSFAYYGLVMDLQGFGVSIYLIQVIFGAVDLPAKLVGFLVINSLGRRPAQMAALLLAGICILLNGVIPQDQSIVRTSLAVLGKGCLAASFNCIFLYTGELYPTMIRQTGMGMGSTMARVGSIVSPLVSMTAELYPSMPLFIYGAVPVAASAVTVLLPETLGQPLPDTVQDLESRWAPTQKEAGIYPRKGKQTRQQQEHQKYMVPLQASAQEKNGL
Assay: TP_TRANSPORTER: uptake in OAT1-expressing CHO cells
Assay type: functional, cell-based
Details: hamster

Which Activity does the source give for CC(C(=O)O)c1cccc(C(=O)c2ccccc2)c1 (stereo unspecified) [KETOPROFEN] here?
Its Activity is “is not a substrate [-]”.
